This note sets out measurements from paper PMC11900971 (International Journal of Molecular Sciences, 2025).

For assay [1], the system named is L6 cells (rat skeletal myoblasts). Conditions: read-out: Cyt L6 IC50.
The test system of assay [2] is Trypanosoma brucei rhodesiense, STIB 900 strain, bloodstream forms.
In assay [3] the test system is Plasmodium falciparum, strain NF54, erythrocytic stages.
The test system is the same in assay [4]. The assay can be described thus: microbe, parasite or virus in culture. The settings on record: for pIC50: NF54, read-out: P. falc. IC50; for IC50: NF54, read-out: P. falc. pIC50 (converted).
Assay [5] deals with L6 cells (rat skeletal myoblasts). The assay can be described thus: cells. Conditions: L6, read-out: Cyt L6 IC50.
Assay [6] has as its system Trypanosoma brucei rhodesiense, STIB 900 strain, bloodstream forms. The experiment in a line: microbe, parasite or virus in culture. Conditions: for pIC50: read-out: T. b. rhod. IC50; for IC50: read-out: T. b. rhod. pIC50 (converted).

pIC50: −log10 of the molar value. Where two headings read alike, the source gives them in different places.

Usually pIC50 stands for −log10 of the IC50, conventionally taken in molar units. In the case of “2-Methyl-2-{[4-(4,4,4-trifluorobutanamido)phenyl]methyl}-1,4-naphthoquinone [Compound 2n]”, the pIC50 in assay [1] is 4.83; in assay [2] (read-out: T. b. rhod. IC50) it was 4.14; in assay [3] (read-out: P. falc. IC50, P. falciparum strain NF54, erythrocytic stages), 6.80. In assay [2], the “T. b. rhod. pIC50” value amounted to 4.14. Besides, the “SI (T. b. rhod.)” value in assay [2] (ratio IC50 in L6 cells/IC50 in T. b. rhodesiense STIB900) was found to be 0. Further, the “P. falc. pIC50” value in assay [3] (pIC50 = -log10 IC50 (M), P. falciparum NF54) is listed as 6.80. For the same molecule, the “SI (P. falc.)” value in assay [3] (ratio IC50 in L6 cells/IC50 in P. falciparum NF54) came to 92.

`CC1=C(Cc2cccc(NC(=O)CCC(F)(F)F)c2)C(=O)c2ccccc2C1=O` [Compound 2o, 2-Methyl-3-{[3-(4,4,4-trifluorobutanamido)phenyl]methyl}-1,4-naphthoquinone]: the negative-log IC50 (pIC50) in assay [4] is 6.17; in assay [5] it was 4.06; in assay [6], 4.29. The IC50 in assay [4] was 631 nM; in assay [6] it was 51300 nM. Moreover, the “P. falc. pIC50” value in assay [3] was 6.17.

Take `O=C1C=C(Cc2ccc(C(F)(F)F)cc2F)C(=O)c2ccccc21` [Compound 4c, 2-{[2-Fluoro-4-(trifluoromethyl)phenyl]methyl}-1,4-naphthoquinone]: the pIC50 in assay [4] was 5.75; in assay [5], 4.43; in assay [6], 6.10. Besides, the IC50 in assay [4] is 1780 nM; in assay [6], 794 nM.

For the molecule `O=C1C=C(Cc2ccc(F)cc2C(F)(F)F)C(=O)c2ccccc21` [Compound 4d, 2-{[4-Fluoro-2-(trifluoromethyl)phenyl]methyl}-1,4-naphthoquinone], the pIC50 in assay [4] is 5.64; in assay [5] it was 4.42; in assay [6], 5.76. Further, the values for the IC50 in assay [4] and in assay [6] were 2290 nM and 1740 nM, respectively.

In the case of `O=C1C=C(Cc2ccc(Cl)nc2)C(=O)c2ccccc21` [Compound 4e, 2-[(6-Chloropyridin-3-yl)methyl]-1,4-naphthoquinone], the pIC50 in assay [4] is 5.70; in assay [5], 5.40; in assay [6], 6.28. Further, the IC50 in assay [4] was 2000 nM; in assay [6] it was 525 nM.

For the molecule `O=C1C(Cc2ccccc2)=C(C(F)(F)F)C(=O)c2ccccc21` [Compound 5a, 2-Benzyl-3-(trifluoromethyl)-1,4-naphthoquinone], the pIC50 is 5.42 in assay [4], 4.97 in assay [5] and 5.72 in assay [6]. Moreover, the IC50 was 3800 nM in assay [4] and 1910 nM in assay [6].

For `O=C1C(Cc2ccc(C(F)(F)F)cc2)=C(C(F)(F)F)C(=O)c2ccccc21` [Compound 5b, 2-(Trifluoromethyl)-3-{[4-(trifluoromethyl)phenyl]methyl}-1,4-naphthoquinone], the results for the pIC50 in assay [4], in assay [5] and in assay [6] were 5.84, 5.70 and 5.71, respectively. Also, the values for the IC50 in assay [4] and in assay [6] were 1450 nM and 1950 nM, respectively.

`O=C1C(Cc2ccc(C(F)(F)F)cc2F)=C(C(F)(F)F)C(=O)c2ccccc21` [Compound 5c, 2-{[2-Fluoro-4-(trifluoromethyl)phenyl]methyl}-3-(trifluoromethyl)-1,4-naphthoquinone]: the figures for the pIC50 in assay [4], in assay [5] and in assay [6] were 5.64, 6.09 and 5.03, respectively. In addition, the IC50 in assay [4] was 2290 nM; in assay [6], 9330 nM.
